Here are results for 12 molecules from article PMC5339975, “Cytotoxicity, antimicrobial and antioxidant activity of eight compounds isolated from Entada abyssinica (Fabaceae)” (BMC Research Notes, 2017).

Data set [1] in a line: DPPH radical-scavenging assay. To be noted: mean ± SD of three experiments. The method, then:
The DPPH radical-scavenging activity was assessed by the method previously described.
On the technique in general: The DPPH test is a chemical assay of radical scavenging.

Data set [2] in a line: ABTS radical assay. The note with it: mean ± SD of three experiments. The protocol: The antioxidant activity by ABTS was assessed according to the method previously described.
The test system of data set [3] is Staphylococcus aureus ATCC 29213. Description: Antibacterial MIC, INT microdilution. The format is cell-based. The note with it: ATCC29213, read-out: MIC Sa. The protocol: (§1) The six bacterial strains included: Pseudomonas aeruginosa ATCC 27853, Bacillus cereus ATCC 14579, Staphylococcus aureus ATCC 29213, Escherichia coli ATCC 25922, Salmonella typhimurium ATCC 14028 and Enterococcus faecalis ATCC 29212. The antimicrobial activity was evaluated by determining the minimal inhibitory concentration (MIC) by the rapid p-iodonitrotetrazolium violet (INT) microdilution method as previously described.
For orientation: Dilution methods test growth across graded concentrations, often in twofold steps.

The subject of data set [4] is Escherichia coli ATCC 25922. Description: Antibacterial MIC, INT microdilution. Format: cell-based. To be noted: ATCC25922, read-out: MIC Ec. The protocol: as §1
In data set [5] the test system is Salmonella typhimurium ATCC 14028. Description: Antibacterial MIC, INT microdilution. To be noted: Salmonella enterica, read-out: MIC St. Format: cell-based. The protocol:
as §1

In data set [6] the test system is Pseudomonas aeruginosa ATCC 27853. Kind of data set: Antibacterial MIC, INT microdilution. To be noted: ATCC27853, read-out: MIC Pa. Format: cell-based. The protocol:
as §1

Data set [7] concerns Enterococcus faecalis ATCC 29212. Description: Antibacterial MIC, INT microdilution. Format: cell-based. The note with it: ATCC29212, read-out: MIC Ef. The method, then: as §1
Data set [8] concerns Bacillus cereus ATCC 14579. Kind of data set: Antibacterial MIC, INT microdilution. The format is cell-based. The note with it: ATCC14579, read-out: MIC Bc. The protocol:
as §1

Data set [9] relates to RAW 264.7 cells. Description: MTT cytotoxicity assay, cancer cells. The format is cell-based. The note with it: Mus musculus, RAW264.7, read-out: RAW 264.7 LC50. The method, then: (§2) Cancer cell lines including human monocytic THP-1 and murine macrophage RAW 264.7 cells and the normal mammalian Vero monkey kidney cell line were obtained from the American Type Culture Collection (Rockville, MD, USA). They were maintained in DMEM under standard cell culture conditions at 37 °C and 5% CO2 in a humidified environment.
(§3) The 3-(4,5-dimethylthiazol-2-yl)-2,5-diphenyltetrazolium bromide (MTT) assay was used to determine the cytotoxicity of the compounds as previously described. The selectivity index (SI) values to identify selective anti-cancer cell activity were calculated by dividing the LC50 values of normal Vero cells by the LC50 of cancer cells.
A general note: Tetrazolium assays rely on reduction of a dye to a coloured formazan, in cell work by metabolically active cells.

The test system of data set [10] is THP-1 cells. Description: MTT cytotoxicity assay, cancer cells. The format is cell-based. To be noted: Homo sapiens, THP-1, read-out: THP-1 LC50. The protocol:
as §2, §3

Data set [11] deals with S. aureus. The note with it: cited from earlier work.
Data set [12] is described as follows: MTT cytotoxicity assay, normal cells. The note with it: monkey. Format: cell-based. The protocol: as §2, §3
A short description of data set [13]: Ferric reducing antioxidant power (FRAP) assay. The note with it: mean ± SD of three experiments. The protocol:
The antioxidant activity by the ferric reducing antioxidant power (FRAP) was assessed according to the method previously described with slight modifications.

The test system of data set [14] is Vero monkey kidney cells. Kind of data set: MTT cytotoxicity assay, normal cells. The note with it: normal Vero cells, MTT, mean ± SD. The format is cell-based. The protocol: as §2, §3

Structures are written as SMILES. In brackets after ≈: the same amount, converted by molar mass. Where two headings read alike, the source gives them in different places. Marks after values point to notes of the source that are not given here. Bounds are passed on as bounds.

In the case of `O=C1O[C@H]([C@@H](O)CO)C(O)=C1O` [Ascorbic acid, reference compound], in [1], the “DPPH (IC50)” value is reported as 3.44 ± 1.9^a,f µg/mL. Besides, the “ABTS (IC50)” value in data set [2] is 4.15 ± 1.21^d,e µg/mL.
For `C[C@H]1[C@H](C)CC[C@]2(C(=O)O)CC[C@]3(C)C(=CC[C@@H]4[C@@]5(C)CC[C@H](O)C(C)(C)[C@@H]5CC[C@]43C)[C@H]12` [Compound 1, ursolic acid], the MIC is 12.5 µg/mL (≈ 27.4 µM) in [3]; above 100 µg/mL in data set [4]; 100 µg/mL (≈ 219 µM) in data set [5] (Salmonella typhimurium); above 100 µg/mL in data set [6]; above 100 µg/mL in data set [7]; 6.25 µg/mL (≈ 13.7 µM) in [8]. Also, the minimal inhibitory concentration (MIC) in data set [11] is on record as 4 µg/mL (≈ 8.76 µM). In addition, the CC50 in [9] was found to be 4.56 ± 0.02 µg/mL (≈ 9.98 µM); in [10] it was 9.62 ± 0.59 µg/mL (≈ 21.1 µM); in data set [12], 22.4 ± 2.48 µg/mL (≈ 49.1 µM).
Turning to `C[C@@H]1O[C@@H](Oc2c(-c3ccc(O)c(O)c3)oc3cc(O)cc(O)c3c2=O)[C@H](O)[C@H](O)[C@H]1O` [Compound 2, quercetin-3-O-α-L-rhamnoside], the MIC was 12.5 µg/mL (≈ 27.9 µM) in [3]; 50 µg/mL (≈ 112 µM) in data set [4]; 3.12 µg/mL (≈ 6.96 µM) in data set [5]; 50 µg/mL (≈ 112 µM) in data set [6]; 25 µg/mL (≈ 55.8 µM) in data set [7]; 12.5 µg/mL (≈ 27.9 µM) in data set [8]. Further, the CC50 in data set [9] is 16.4 ± 0.2 µg/mL (≈ 36.7 µM); in data set [10], above 100 µg/mL; in data set [12] (normal Vero cells, MTT, mean ± SD, read-out: Vero LC50), 44.8 ± 2.83 µg/mL (≈ 100 µM). The “DPPH (IC50)” value in data set [1] is recorded as 0.9 ± 0.06^b µg/mL. Also, the “ABTS (IC50)” value in data set [2] is reported as 3.53 ± 0.39^b µg/mL. In addition, in data set [13], the FRAP is reported as 76.01 ± 1.10^b µmol FeSO4/g.
For the molecule `COC(=O)/C=C(/C)CC[C@]1(C)[C@H]2CCC=C(C(=O)O)[C@]2(C)CC[C@@H]1C` [Compound 4, (8S)-kolavic acid 15-methyl ester], the MIC in [3] was 25 µg/mL (≈ 71.7 µM); in data set [4], above 100 µg/mL; in data set [5] (Salmonella typhimurium) it was 100 µg/mL (≈ 287 µM); in [6] it was above 100 µg/mL; in [7], above 100 µg/mL; in [8], 25 µg/mL (≈ 71.7 µM). The CC50 came to 52.3 ± 1.3 µg/mL (≈ 150 µM) in data set [9], 49.8 ± 3.03 µg/mL (≈ 143 µM) in data set [10] and 47.5 ± 0.63 µg/mL (≈ 136 µM) in [12]. The “DPPH (IC50)” value in [1] is “– (– 100 µg/mL)”. Moreover, the “ABTS (IC50)” value in [2] is on record as “– (– 100 µg/mL)”. In data set [13], the FRAP is 1.93 ± 0.14^a µmol FeSO4/g.
With `C[C@@H]1CC[C@@]2(C)C(C(=O)O)=CCC[C@@H]2[C@@]1(C)CC(=O)O` [Compound 5, 13,14,15,16-tetranor-3-clerodene-12,18-dioic acid], the MIC in data set [3], in [4], in data set [5] (Salmonella typhimurium), in data set [6], in data set [7] and in [8] was above 100 µg/mL each time. For the same molecule, the CC50 in data set [9] was found to be 16.1 ± 1 µg/mL (≈ 57.4 µM); in data set [10], 21.8 ± 1.11 µg/mL (≈ 77.8 µM); in data set [12] it was 41.9 ± 1.85 µg/mL (≈ 149 µM). For the same molecule, the “DPPH (IC50)” value in data set [1] is on record as “– (– 100 µg/mL)”. Besides, the “ABTS (IC50)” value in [2] was “– (– 100 µg/mL)”. Moreover, in [13], the FRAP is 5.09 ± 0.40^c µmol FeSO4/g.
For `COC(=O)c1cc(O)c(O)c(O)c1` [Compound 6, methyl gallate], the minimum inhibitory concentration (MIC) in data set [3] is 50 µg/mL (≈ 272 µM); in data set [4], above 100 µg/mL; in [5] (Salmonella typhimurium), 25 µg/mL (≈ 136 µM); in data set [6], above 100 µg/mL; in data set [7], above 100 µg/mL; in data set [8] it was 50 µg/mL (≈ 272 µM). Further, the CC50 in data set [9] worked out at 36.9 ± 1.27 µg/mL (≈ 200 µM); in [10], 75 ± 1.68 µg/mL (≈ 407 µM); in [12], 30.6 ± 3.09 µg/mL (≈ 166 µM). Moreover, the “DPPH (IC50)” value in data set [1] is recorded as 0.48 ± 0.02^c µg/mL. For the same molecule, the “ABTS (IC50)” value in data set [2] is given as 2.53 ± 0.49^d µg/mL. For the same molecule, the FRAP in data set [13] is listed as 103.98 ± 13.70^d µmol FeSO4/g.
As for `COc1c(O)c(O)cc2c1COc1c-2oc2cc(O)cc(O)c2c1=O` [Compound 7, entadanin], the MIC is 12.5 µg/mL (≈ 36.3 µM) in [3]; 12.5 µg/mL (≈ 36.3 µM) in [4]; 1.56 µg/mL (≈ 4.53 µM) in data set [5] (Salmonella typhimurium); 25 µg/mL (≈ 72.6 µM) in data set [6]; above 100 µg/mL in data set [7]; 25 µg/mL (≈ 72.6 µM) in [8]. The CC50 in data set [9] is 19.1 ± 0.25 µg/mL (≈ 55.5 µM); in [10] it was 84.3 ± 3.3 µg/mL (≈ 245 µM); in [12], 55.65 ± 0.3 µg/mL (≈ 162 µM). Further, the “DPPH (IC50)” value in data set [1] is recorded as 1.12 ± 0.10^c,d µg/mL. Moreover, the “ABTS (IC50)” value in data set [2] was 4.13 ± 0.10^e µg/mL. Besides, the FRAP in data set [13] is reported as 72.41 ± 2.02^b,e µmol FeSO4/g.
For `O=C(CCCCCCCCCCCCCCCCCCCCCCCCC(=O)OC[C@@H](O)CO)OC[C@@H](O)CO` [Compound 8, bis-[(S)-(2,3-dihydroxypropyl)] hexacosanedioate], the MIC in data set [3], in [4], in data set [5] (Salmonella typhimurium), in data set [6], in data set [7] and in data set [8] was above 100 µg/mL in each case. The CC50 is 86.5 ± 4.61 µg/mL (≈ 151 µM) in data set [9], 65 ± 6.88 µg/mL (≈ 113 µM) in data set [10] and 80.5 ± 4.83 µg/mL (≈ 140 µM) in data set [12]. Also, the “DPPH (IC50)” value in [1] is reported as “– (– 100 µg/mL)”. Further, the “ABTS (IC50)” value in [2] was “– (– 100 µg/mL)”. For the same molecule, the FRAP in [13] is reported as 22.98 ± 4.29^f µmol FeSO4/g.
For `COc1cccc2c1C(=O)c1c(O)c3c(c(O)c1C2=O)C[C@@](O)(C(=O)CO)C[C@@H]3O[C@H]1C[C@H](N)[C@H](O)[C@H](C)O1` [Doxorubicin, reference compound], the CC50 is 0.5 µg/mL (≈ 0.92 µM) in data set [9] and above 100 µg/mL in data set [10]. Moreover, the “Vero LC50” value in data set [14] is given as 9.35 ± 0.66^h µg/mL.
Regarding `CNC(C)C1CCC(N)C(OC2C(N)CC(N)C(OC3OCC(C)(O)C(NC)C3O)C2O)O1` (centres unmarked) [Gentamicin, reference compound], the MIC came to 0.5 µg/mL (≈ 1.05 µM) in data set [3]; 1 µg/mL (≈ 2.09 µM) in data set [4]; 2 µg/mL (≈ 4.19 µM) in [5] (Salmonella typhimurium); 0.25 µg/mL (≈ 0.523 µM) in data set [6]; 0.25 µg/mL (≈ 0.523 µM) in [7]; 0.5 µg/mL (≈ 1.05 µM) in [8].
Consider `COc1ccc(C[C@H](N)C(=O)N[C@H]2[C@@H](O)[C@H](n3cnc4c(N(C)C)ncnc43)O[C@@H]2CO)cc1` [Puromycin, reference compound], for which the figures for the CC50 in [9] and in [10] were 1.15 ± 0.17 µg/mL (≈ 2.44 µM) and 0.4 ± 0.02 µg/mL (≈ 0.848 µM), respectively. The “Vero LC50” value in data set [14] is reported as 5.32 ± 0.90^i µg/mL.
Regarding `Cc1c(C)c2c(c(C)c1O)CCC(C)(C(=O)O)O2` (centres unmarked) [Trolox, reference compound], the “DPPH (IC50)” value in data set [1] is recorded as 8.71 ± 2.03^e µg/mL. Moreover, the “ABTS (IC50)” value in data set [2] is reported as 10.38 ± 2.4^a,f µg/mL.

As a reminder, the MIC is the lowest concentration found to suppress growth.
